In one assay the test system is BLT2. Details: method as in PMID 18378794. The note with it: cited from earlier work.
For another assay, the target named is T1, BLT2 R160^4.64A (Homo sapiens, UniProt Q9NPC1, R160A).
T1 construct: made in house
T1 sequence (Q9NPC1 1-358 R160A): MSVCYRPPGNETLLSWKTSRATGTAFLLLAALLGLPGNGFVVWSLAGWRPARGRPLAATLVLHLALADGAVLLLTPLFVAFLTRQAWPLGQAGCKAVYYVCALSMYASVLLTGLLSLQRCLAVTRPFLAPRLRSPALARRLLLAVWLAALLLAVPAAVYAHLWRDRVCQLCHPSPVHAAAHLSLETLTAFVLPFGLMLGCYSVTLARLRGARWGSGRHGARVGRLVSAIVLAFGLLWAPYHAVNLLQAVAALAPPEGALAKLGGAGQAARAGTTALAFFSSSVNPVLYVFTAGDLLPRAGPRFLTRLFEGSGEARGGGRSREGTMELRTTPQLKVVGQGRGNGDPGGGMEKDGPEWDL
Briefly: Gi protein activation catalyzed by BLT2 mutant. It is filed as biochemical. The procedure:
(§1) All mutations were introduced in the wild-type BLT2 receptor by PCR-mediated mutagenesis using the QuickChange multisite-directed mutagenesis kit (Stratagene) and the wild-type BLT2 construct as a template. Mutations were confirmed by nucleotide sequencing. […] Gαi2 and Gβ1γ2 were prepared as previously described. […] The data were normalized to the fluorescence maximum obtained in the presence of saturating concentrations in 12–HHT (10 μM).

Another assay addresses T2, BLT2 R166^ECL2A (Homo sapiens, UniProt Q9NPC1, R166A).
T2 construct: made in house
T2 sequence (Q9NPC1 1-358 R166A): T1 sequence (Q9NPC1 1-358 R160A) with A160R, R166A
Nature of the assay: Gi protein activation catalyzed by BLT2 mutant. It counts as biochemical. The procedure: as §1

In another assay the target is T3, BLT2 E185^5.42A (Homo sapiens, UniProt Q9NPC1, E185A).
T3 construct: made in house
T3 sequence (Q9NPC1 1-358 E185A): T1 sequence (Q9NPC1 1-358 R160A) with A160R, E185A
Nature of the assay: Gi protein activation catalyzed by BLT2 mutant. It is filed as biochemical. The procedure: as §1

The target in a further assay is T4, BLT2 Q267^7.32A (Homo sapiens, UniProt Q9NPC1, Q267A).
T4 construct: made in house
T4 sequence (Q9NPC1 1-358 Q267A): T1 sequence (Q9NPC1 1-358 R160A) with A160R, Q267A
Nature of the assay: Gi protein activation catalyzed by BLT2 mutant. It counts as biochemical. The procedure:
as §1

Another assay addresses T5, BLT2 T274^7.39A (Homo sapiens, UniProt Q9NPC1, T274A).
T5 construct: made in house
T5 sequence (Q9NPC1 1-358 T274A): T1 sequence (Q9NPC1 1-358 R160A) with A160R, T274A
Nature of the assay: Gi protein activation catalyzed by BLT2 mutant. It counts as biochemical. The procedure: as §1

Another assay concerns the target T6, BLT2 P175^ECL2A (Homo sapiens, UniProt Q9NPC1, P175A).
T6 construct: made in house
T6 sequence (Q9NPC1 1-358 P175A): T1 sequence (Q9NPC1 1-358 R160A) with A160R, P175A
Nature of the assay: Gi protein activation catalyzed by BLT2 mutant. It counts as biochemical. The procedure: as §1

The target in a further assay is purified BLT2 receptor. Also on record: method as in PMID 21688157. The note with it: cited from earlier work.

Molecules are shown by their SMILES. Residue numbers refer to the chain shown, from its start.

What is called EC50 is the concentration that produces a half-maximal response. For orientation: Kd means a measure of binding affinity in units of concentration. On to `CCCCC[C@H](O)/C=C/C=C/C/C=C\CCCC(=O)O` [12–HHT, 12S–hydroxyheptadeca-5Z,8E,10E-trienoic acid], for which the “affinity for BLT2 compared to LTB4” value in the assay with BLT2 (in cellulo measurements) was “about one order of magnitude”. Moreover, the “half maximal inhibitory concentration (IC50) compared to LTB4” value with BLT2 (membrane fractions of CHO transfected by BLT2) was “about one order of magnitude lower than LTB4”. Besides, the “effect of the mutation on ligand binding” value is given as “no effect” on BLT2 R160^4.64A (R160^4.64A compared to wild-type, in words); “do not impact receptor ligand properties” on BLT2 R166^ECL2A (R166^ECL2 mutation compared to wild-type, in words); “did not significantly affect” on BLT2 E185^5.42A (E185A compared to wild-type, in words); “no significant change in ligand binding” on BLT2 Q267^7.32A (Q267^7.32A compared to wild-type, in words); “do not impact receptor ligand properties” on BLT2 T274^7.39A (T274^7.39A compared to wild-type, in words); “do not display a significant impact on ligand binding” at BLT2 P175^ECL2A (P175^ECL2 to alanine compared to wild-type, in words). The half-maximal effective concentration (EC50) is 20.5 nM at BLT2 R160^4.64A (construct R160^4.64A); 20.7 nM at BLT2 R166^ECL2A (construct R166^ECL2A); 70.7 nM at BLT2 E185^5.42A (construct E185^5.42A); 33.1 nM at BLT2 Q267^7.32A (construct Q267^7.32A); 27.7 nM at BLT2 T274^7.39A (construct T274^7.39A); 38.9 nM on BLT2 P175^ECL2A (construct P175^ECL2A). Moreover, on purified BLT2 receptor (purified BLT2 associated with amphipols in solution, in vitro), the Kd is about 60 nM. Also, in the assay on purified BLT2 receptor (ratio 12–HHT / LTB4), the “bound time compared with LTB4 (in vitro off-rate constant measurements)” value is 3.6 times.

Source of the values: PMC7021728, “Structure of the agonist 12–HHT in its BLT2 receptor-bound state” (Scientific Reports, 2020).
